The source made the active and inactive calls. The calls are words filed in the database; no cut-off is given here.
Experiments:
Mus musculus = experiment: Effect on plasma OGF level in athymic BALB/c nu/nu nude mouse xenografted with MIAPaCa2 cells at 120 mg/kg dosed every 3 days and co-treated with 10 mg/kg OGF by radioimmunoassay; assay type: functional, organism-based
MIA PaCa-2 [1] = experiment: Antitumor activity against human MIAPaCa2 cells xenografted in athymic BALB/c nu/nu nude mouse assessed as tumor incidence at 120 mg/kg dosed every 3 days and co-treated with 10 mg/kg OGF measured on day 10 after tumor cell inoculation (reference value: 80%); assay type: functional
UMSCC1 [2] = experiment: Induction of cell cycle arrest in human UM-SCC-1 cells assessed as reduction in accumulation at G2/M phase in presence of OGF after 6 hrs by flow cytometry; assay type: functional, cell-based
MIA PaCa-2 [3] = experiment: Growth inhibition of human MIAPaCa2 cells assessed as decrease in cell number at 0.01 uM incubated for 72 hrs in presence of 1 uM OGF by trypan blue staining assay relative to control; assay type: functional
[4] = Toxicity in athymic BALB/c nu/nu nude mouse xenografted with human MIAPaCa2 cells assessed as body weight at 120 mg/kg dosed every 3 days and co-treated with 10 mg/kg OGF measured on day 45 after tumor cell inoculation (reference value: 33.3 +/- 1 g); assay type: organism-based; conditions: in vivo, 72 h
UMSCC1 [5] = experiment: Antitumor activity against human UM-SCC-1 cells xenografted in nu/nu mouse assessed as latency time for measurable (62.5 mm3) tumors at 120 mg/kg dosed every 3 days (Rvb <=14 days); assay type: functional
MIA PaCa-2 [6] = experiment: Growth inhibition of human MIAPaCa2 cells assessed as decrease in cell number at 0.01 uM incubated for 96 hrs in presence of 1 uM opioid antagonist naloxone by MTS assay relative to control; assay type: functional, cell-based
MIA PaCa-2 [7] = experiment: Antitumor activity against human MIAPaCa2 cells xenografted in athymic BALB/c nu/nu nude mouse assessed as effect on tumor incidence at 10 mg/kg dosed daily measured on day 16 after tumor cell inoculation relative to control; assay type: functional, organism-based
MIA PaCa-2 [8] = experiment: Antitumor activity against human MIAPaCa2 cells xenografted in athymic BALB/c nu/nu nude mouse assessed as latency time for measurable tumor at 10 mg/kg dosed daily measured on day 10 after tumor cell inoculation (reference value: 13.2 +/- 1.8 days); assay type: functional
UMSCC1 [9] = experiment: Induction of cell cycle arrest in human UM-SCC-1 cells assessed as accumulation at G1/S phase after 6 hrs by flow cytometry; assay type: functional, cell-based
[10] = Toxicity in athymic BALB/c nu/nu nude mouse xenografted with human MIAPaCa2 cells assessed as body weight at 10 mg/kg dosed daily measured on day 45 after tumor cell inoculation (reference value: 33.3 +/- 1 g); assay type: organism-based; conditions: in vivo

With `Nc1ccn([C@@H]2O[C@H](CO)[C@@H](O)C2(F)F)c(=O)n1` [GEMCITABINE] the Activity (Mus musculus) was “inactive”, the Activity (MIA PaCa-2 [1]) was 0% and the Activity (UMSCC1 [2]) was “Active”. The “growth inhibition (GI)” value (MIA PaCa-2 [3]) was 49.2%, the Activity [4] was 30.6 g and the Time (UMSCC1 [5]) was “<=2 weeks”. For the same compound, the “growth inhibition (GI)” value (MIA PaCa-2 [6]) was “Active”, the Activity (MIA PaCa-2 [7]) was “inactive” and the Time (MIA PaCa-2 [8]) was 14.2 days. For the same compound, the Activity (UMSCC1 [9]) was “Active” and the Activity [10] was 31.4 g.
